In patent publication US6682892B2, “Method for treating herpes viruses” (priority 2000, dated 2004):
pIC50: −log10 of the molar value. Where two headings read alike, the source gives them in different places.

What was measured:
Assay type in all cases: cell-based
[1] = tested on: HCMV AD169-M1 (V823A, V824L); assay: Plaque reduction assay, 4-oxo-DHQ resistant HCMV AD169-M1
Method: (§1) Antiviral activity of compounds against herpesviruses such as HSV-1, HSV-2, or HCMV can be measured using plaque reduction assays. 0.1 ml of media containing approximately 50 PFU of virus is added to each well of a 24-well cell culture dish containing a confluent monolayer of cells (Vero cells for HSV-1 and HSV-2, HFF cells for HCMV). Compounds are dissolved in 100% DMSO and diluted in 100% DMSO as 200× stocks of the desired final drug concentration. Typically 5-6 two-fold dilutions are prepared for each compound. Dilutions of compounds are then added to media containing 0.8% CMC resulting in a final 1× drug concentration. After the virus-infected cells have incubated for 1 h at 37° C., the virus innoculum is removed and 1 ml of media containing 0.8% CMC and the various concentrations of compound is added to each well of the dish. The dish is incubated at 37° C. for approximately 2-3 days (HSV-1 and HSV-2) or 6-9 days (HCMV) to allow sufficient growth of virus to form plaques in the cell monolayer. Plaques can be observed and counted microscopically or by staining the cells with 0.1% crystal violet in 20% ethanol. […] Antiviral activity of a compound is expressed as the concentration of compound predicted to reduce the number of plaques in a well by 50% (IC50). The IC50 values are calculated by plotting the per cent inhibition vs. concentration of compound using EXCEL software for linear regression.
A plasmid containing the wild-type HCMV polymerase gene is modified to contain the V823A or V823A and V824L mutations using a site-directed mutagenesis Kit (Stratagene Corp.) and following the manufactures's protocol. HFF cells are plated into T25 tissue culture flasks to achieve 80% confluency at the time of the transfection. Wild type HCMV AD 169 DNA and plasmid DNA containing the mutant HCMV polymerase gene are mixed at a ratio of 1:2 (2 ug of viral DNA to 4 ug of plasmid DNA). DNA's are transfected using superfect transfection reagent according to methods recommended by the manufacturer (Quiagen Inc.). Cells are harvested five days posttransfection, freeze-thawed to release virus and half of the sample is used to infect HFF cell monolayers. Cells are overlayed with media containing 20 uM 4-oxo-DHQ compound 2 (see FIG. 1). Serial passage is repeated seven times in the presence of 20 uM compound 2 and virus isolates are then plaque purified three times prior to preparation of viral stock.
In order to isolate an HCMV resistant mutant marker rescue experiments are done. Plasmids containing the mutant polymerase genes are transfected into HFF cells along with wild type HCMV AD169 DNA. The resulting virus is then serially passaged in the presence of 20 uM compound 1 (see FIG. 1). A 4-oxo-DHQ resistant virus is isolated from marker rescue studies done with the HCMV polymerase gene containing mutations that result in the V823A, V824L amino acid changes, but not with the gene containing V823A change alone.

HSV-1 KOS-M1 (V823A) = assay: Plaque reduction assay, 4-oxo-DHQ resistant HSV-1 KOS-M1
Method: as §1
(§2) Vero cells are plated out at a density of 3.5×10^5 cells per well in a six well tissue culture plate. Cells are infected with HSV-1 KOS at a multiplicity of infection (moi) of 0.1 pfu/cell and 1 h post infection the cells are overlayed with 3 ml media containing 20 uM of a 4-oxo-DHQ. Cultures are incubated for 20 h at 37° C., freeze/thawed to release cell-associated virus, and 0.1 ml of culture is used to infect a new monolayer of Vero cells (one passage). Serial passage is repeated seven times in the presence of 20 uM drug. Virus isolates are then plaque purified three times prior to preparation of stocks. 4-oxo-DHQ resistant HSV-1 and HSV-2 may also be selected by the marker transfer method described below using wild-type HSV DNA and the corresponding mutant HSV polymerase gene.
(§3) A panel of viruses consisting of four strains of HSV-1 (KOS, F, DJL, Patton) and three strains of HSV-2 (MS, 35D, 186) are tested in a plaque reduction assay against four different 4-oxo-DHQ compounds (#1, 2, 4, 5 as shown in FIG. 1), and one 4-oxo-DHTP compound (#3 as shown in FIG. 1) and against Acyclovir. The six drugs inhibited replication of the seven virus strains with IC50 values ranging from 2-10 μM (Table 1). In order to select for 4-oxo-DHQ resistant mutants, HSV-1 strains KOS, F, and DJL along with HSV-2 strains 186 and MS are serially passaged in the presence of 20 uM compound 1. Following the seventh passage, 4-oxo-DHQ resistant virus from each strain are plaque purified three times and high-titer stocks are made.

HSV-1 KOS = assay: Plaque reduction assay, HSV-1 KOS
Method: as §1, §3

HSV-2 MS = assay: Plaque reduction assay, HSV-2 MS
Method: as §1, §3

HSV-2 MS-M1 (V826A) = assay: Plaque reduction assay, 4-oxo-DHQ resistant HSV-2 MS-M1
Method: as §1, §2, §3

HCMV AD169 = assay: Plaque reduction assay, HCMV AD169; settings: for IC50: Table 5, wild type strain, read-out: Plaque Reduction Assay - IC50 (μM) HCMV AD169; for pIC50: Table 4, plaque reduction, wild type, read-out: HCMV AD169 IC50
Method: as §1

HSV-1 Patton = assay: Plaque reduction assay, HSV-1 Patton; settings: Table 1, plaque reduction, Vero cells
Method: as §1, §3

HSV-1 F = assay: Plaque reduction assay, HSV-1 F; settings: Table 1, plaque reduction, Vero cells
Method: as §1, §3

HSV-1 DJL = assay: Plaque reduction assay, HSV-1 DJL; settings: Table 1, plaque reduction, Vero cells
Method: as §1, §3

HSV-2 186 = assay: Plaque reduction assay, HSV-2 186; settings: Table 1, plaque reduction, Vero cells
Method: as §1, §3

HSV-2 35D = assay: Plaque reduction assay, HSV-2 35D; settings: Table 1, plaque reduction, Vero cells
Method: as §1, §3

[2] = Table 5, mutant selected for 4-oxo-DHQ resistance, read-out: Plaque Reduction Assay - IC50 (μM) HCMV AD169-M1
[3] = Table 5, mutant selected for 4-oxo-DHQ resistance, read-out: Plaque Reduction Assay - IC50 (μM) HSV-1 KOS-M1
[4] = Table 5, wild type strain, read-out: Plaque Reduction Assay - IC50 (μM) HSV-1 KOS
[5] = Table 5, wild type strain, read-out: Plaque Reduction Assay - IC50 (μM) HSV-2 MS
[6] = Table 5, mutant selected for 4-oxo-DHQ resistance, read-out: Plaque Reduction Assay - IC50 (μM) HSV-2 MS-M1
[7] = Human betaherpesvirus 5, AD169, read-out: HCMV AD169 - M1 IC50 (μM)
[8] = Table 1, plaque reduction, Vero cells, read-out: IC50 (uM), HSV-1 KOS
[9] = Table 1, plaque reduction, Vero cells, read-out: IC50 (uM), HSV-2 MS

Compound	IC50 [1, 2]	IC50 (HSV-1 KOS-M1 (V823A); [3])	IC50 (HSV-1 KOS; [4])	IC50 (HSV-2 MS; [5])	IC50 (HSV-2 MS-M1 (V826A); [6])	IC50 (HCMV AD169)	also measured
CN(Cc1cc2c(=O)c(C(=O)NCc3ccc(Cl)cc3)cn(C)c2s1)CC(O)c1ccccc1 (racemic) [Compound 8]	1.1 µM	> 50 µM	5.1 µM	2.3 µM	> 50 µM	< 0.1 µM	
Nc1nc2c(ncn2COCCO)c(=O)[nH]1 [ACV, Acyclovir, reference compound]							IC50 (HSV-1 Patton; Human alphaherpesvirus 1): 9.3 µM; IC50 (HSV-1 KOS-M1 (V823A); Human alphaherpesvirus 1, read-out: Plaque Reduction Assay - IC50 (μM) HSV-1 KOS-M1): 4.4 µM; IC50 (HSV-1 F; Human alphaherpesvirus 1): 1.3 µM; IC50 (HSV-1 DJL; Human alphaherpesvirus 1): 1.8 µM; IC50 (HSV-1 KOS; Human alphaherpesvirus 1, Table 1, plaque reduction, Vero cells, read-out: IC50 (uM), HSV-1 KOS): 3.6 µM; IC50 (HSV-1 KOS; Human alphaherpesvirus 1, Table 5, wild type strain, read-out: Plaque Reduction Assay - IC50 (μM) HSV-1 KOS): 3.9 µM; IC50 (HSV-2 186; Human alphaherpesvirus 2): > 10 µM; IC50 (HSV-2 MS; Human alphaherpesvirus 2, Table 1, plaque reduction, Vero cells, read-out: IC50 (uM), HSV-2 MS): 10 µM; IC50 (HSV-2 MS; Human alphaherpesvirus 2, Table 5, wild type strain, read-out: Plaque Reduction Assay - IC50 (μM) HSV-2 MS): 2.4 µM; IC50 (HSV-2 MS-M1 (V826A); Human alphaherpesvirus 2, read-out: Plaque Reduction Assay - IC50 (μM) HSV-2 MS-M1): 2.8 µM; IC50 (HSV-2 35D; Human alphaherpesvirus 2): 6 µM
Nc1ccn([C@@H]2O[C@H](CO)[C@@H](O)[C@@H]2O)c(=O)n1 [AraC, Arabinosylcytidine, reference compound]			0.2 µM	0.2 µM	0.1 µM		
Cc1cn([C@@H]2O[C@H](CO)[C@@H](O)[C@@H]2O)c(=O)[nH]c1=O [AraT, Arabinosylthymine, reference compound]		3.6 µM	11.6 µM	6.6 µM	3.6 µM		
Nc1ccn(C[C@@H](CO)OCP(=O)(O)O)c(=O)n1 [Cidofovir, reference compound]							IC50 [1, 7]: 0.6 µM; increase in IC50 / change in sensitivity, HCMV AD169-M1 [1]: < 2 fold; pIC50 (HCMV AD169; Human betaherpesvirus 5, AD169): 6.52; IC50 (HCMV AD169; Human betaherpesvirus 5, AD169): 0.4 µM
Cn1cc(C(=O)NCc2ccc(Cl)cc2)c(=O)c2cc(CN3CCOCC3)ccc21 [Compound 2]	4 µM	> 50 µM	3.3 µM	1.3 µM	> 50 µM	0.4 µM	IC50 (HSV-1 Patton): 5.3 µM; IC50 (HSV-1 F): 2.3 µM; IC50 (HSV-1 DJL): 2.6 µM; IC50 (HSV-1 KOS; [8]): 3.8 µM; IC50 (HSV-2 186): 2.3 µM; IC50 (HSV-2 MS; [9]): 2.5 µM; IC50 (HSV-2 35D): 5.4 µM
O=C(NCc1ccc(Cl)cc1)c1cn2c3c(cc(CN4CCOCC4)cc3c1=O)OCC2 [Compound 4]		> 50 µM	4.2 µM	2.1 µM	28.4 µM	0.6 µM	IC50 (HSV-1 Patton): 4.3 µM; IC50 (HSV-1 F): 2.1 µM; IC50 (HSV-1 DJL): 2.2 µM; IC50 (HSV-1 KOS; [8]): 3.2 µM; IC50 (HSV-2 186): 2.3 µM; IC50 (HSV-2 MS; [9]): 2.5 µM; IC50 (HSV-2 35D): 3.2 µM
O=C(NCc1ccc(Cl)cc1)c1cn(N2CCOCC2)c2ccc(CN3CCOCC3)cc2c1=O [Compound 5]							IC50 (HSV-1 Patton): 10 µM; IC50 (HSV-1 F): 2.6 µM; IC50 (HSV-1 DJL): 2.7 µM; IC50 (HSV-1 KOS; [8]): 3.3 µM; IC50 (HSV-2 186): 4.2 µM; IC50 (HSV-2 MS; [9]): 2.5 µM; IC50 (HSV-2 35D): 8.1 µM
O=C(NCc1ccc(Cl)cc1)c1cnc2c(F)cccc2c1O [Compound 6]	> 16 µM	> 50 µM	24.6 µM	28.8 µM	> 50 µM	5.1 µM	
O=C(NCc1ccc(Cl)cc1)c1cnc2ccc(CCCO)cc2c1O [Compound 7]	3.4 µM	> 50 µM	6.5 µM	8.8 µM	27.9 µM	0.3 µM	
O=C(NCc1ccc(Cl)cc1)c1cn2c(CO)cc3cc(CN4CCOCC4)cc(c1=O)c32 [Compound 9]	3.1 µM	> 50 µM	1.9 µM	0.9 µM	48.7 µM	< 0.1 µM	
Cn1cc(C(=O)NCc2ccc(Br)cc2)c(=O)c2cc(CN3CCOCC3)sc21 [Compound 10]	> 16 µM	> 50 µM	15.8 µM	29.2 µM	> 50 µM	1.1 µM	
O=C(NCc1ccc(Cl)cc1)c1cn(C2COC2)c2ccc(CN3CCOCC3)cc2c1=O [Compound 11]	3.9 µM	> 50 µM	3.1 µM	3 µM	> 50 µM	0.7 µM	
Cn1cc(C(=O)NCc2ccc(Cl)cc2)c(=O)c2cc(CN3CCOCC3)cc(C#CCO)c21 [Compound 12]	1.1 µM	> 50 µM	1.3 µM	0.4 µM	12.5 µM	0.2 µM	
Cn1cc(C(=S)NCc2ccc(Cl)cc2)c(=O)c2cc(C#CCO)ccc21 [Compound 13]	> 16 µM	< 25 µM	5.5 µM	5.3 µM	> 50 µM	2.7 µM	
Cn1nc(C(=O)NCc2ccc(Cl)cc2)c(=O)c2cc(C#CCO)ccc21 [Compound 14]	18.4 µM	> 50 µM	28.4 µM	1.6 µM	> 50 µM	0.9 µM	
Cc1nc2c(cc1C#CCO)c(=O)c(C(=O)NCc1ccc(Cl)cc1)cn2C [Compound 15]	7.7 µM	> 50 µM	> 50 µM	5.9 µM	> 50 µM	0.7 µM	
Nc1nc(O)c2ncn(COC(CO)CO)c2n1 [Ganciclovir, reference compound]							IC50 [1, 7]: 1 µM; increase in IC50 / change in sensitivity, HCMV AD169-M1 [1]: < 2 fold; pIC50 (HCMV AD169; Human betaherpesvirus 5, AD169): 6.05; IC50 (HCMV AD169; Human betaherpesvirus 5, AD169): 0.8 µM
O=c1[nH]c(=O)n([C@H]2C[C@H](O)[C@@H](CO)O2)cc1I [Iudr, Iododeoxyuridine, reference compound]		0.8 µM	1.1 µM	5 µM	6.1 µM		
O=C(O)P(=O)(O)O [PFA, Foscarnet, reference compound]							IC50 ([1]; Human betaherpesvirus 5, AD169, read-out: Plaque Reduction Assay - IC50 (μM) HCMV AD169-M1): < 20 µM; IC50 (HCMV AD169; Human betaherpesvirus 5, AD169): 38 µM
